# PMC6199309, “A therapeutic approach to pantothenate kinase associated neurodegeneration” (Nature Communications, 2018)
# Tests used:
# [1] = molecular target: T1, FGFR1 (Homo sapiens, UniProt P11362); assay: KINOMEscan; assay type: binding; settings: read-out: %Ctrl @ 10000nM
# T1 construct: purchased DiscoverX KINOMEscan
# [2] = molecular target: T2, EGFR(G719S) (Homo sapiens, UniProt P00533, G719S); assay: KINOMEscan; assay type: binding; settings: read-out: %Ctrl @ 10000nM
# T2 construct: purchased DiscoverX KINOMEscan
# [3] = molecular target: T3, EPHB4 (Homo sapiens, UniProt P54760); assay: KINOMEscan; assay type: binding; settings: read-out: %Ctrl @ 10000nM
# T3 construct: purchased DiscoverX KINOMEscan
# [4] = molecular target: T4, AXL (Homo sapiens, UniProt P30530); assay: KINOMEscan; assay type: binding; settings: read-out: %Ctrl @ 10000nM
# T4 construct: purchased DiscoverX KINOMEscan
# [5] = molecular target: T5, MYLK (Homo sapiens, UniProt Q15746); assay: KINOMEscan; assay type: binding; settings: read-out: %Ctrl @ 10000nM
# T5 construct: purchased DiscoverX KINOMEscan
# [6] = molecular target: T6, MLCK (Homo sapiens, UniProt Q32MK0); assay: KINOMEscan; assay type: binding; settings: read-out: %Ctrl @ 10000nM
# T6 construct: purchased DiscoverX KINOMEscan
# T6 sequence (Q32MK0 whole entry): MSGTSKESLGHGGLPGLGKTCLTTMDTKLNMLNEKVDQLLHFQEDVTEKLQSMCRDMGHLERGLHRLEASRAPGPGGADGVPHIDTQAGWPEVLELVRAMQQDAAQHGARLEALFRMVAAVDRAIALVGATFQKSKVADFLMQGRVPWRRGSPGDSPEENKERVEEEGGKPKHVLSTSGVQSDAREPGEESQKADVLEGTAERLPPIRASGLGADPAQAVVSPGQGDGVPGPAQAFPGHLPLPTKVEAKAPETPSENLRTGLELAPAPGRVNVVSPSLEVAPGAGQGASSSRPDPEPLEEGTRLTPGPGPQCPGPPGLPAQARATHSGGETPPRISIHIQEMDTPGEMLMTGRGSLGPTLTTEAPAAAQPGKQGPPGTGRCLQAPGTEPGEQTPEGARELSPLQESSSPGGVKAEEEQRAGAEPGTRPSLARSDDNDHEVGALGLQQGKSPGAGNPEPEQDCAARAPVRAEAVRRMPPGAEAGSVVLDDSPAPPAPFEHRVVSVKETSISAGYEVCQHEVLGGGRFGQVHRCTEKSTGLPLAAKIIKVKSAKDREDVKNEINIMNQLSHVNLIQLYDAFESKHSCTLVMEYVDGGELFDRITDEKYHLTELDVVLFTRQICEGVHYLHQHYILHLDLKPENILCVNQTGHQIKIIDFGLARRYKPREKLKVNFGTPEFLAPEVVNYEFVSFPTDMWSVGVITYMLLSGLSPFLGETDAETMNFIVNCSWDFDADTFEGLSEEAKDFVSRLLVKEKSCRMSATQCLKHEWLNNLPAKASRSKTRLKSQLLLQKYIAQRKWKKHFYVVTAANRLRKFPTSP
# [7] = molecular target: T7, RET(V804L) (Homo sapiens, UniProt P07949, V804L); assay: KINOMEscan; assay type: binding; settings: read-out: %Ctrl @ 10000nM
# T7 construct: purchased DiscoverX KINOMEscan
# [8] = molecular target: T8, MET (Homo sapiens, UniProt P08581); assay: KINOMEscan; assay type: binding; settings: read-out: %Ctrl @ 10000nM
# T8 construct: purchased DiscoverX KINOMEscan
# T8 sequence (P08581 25-1390): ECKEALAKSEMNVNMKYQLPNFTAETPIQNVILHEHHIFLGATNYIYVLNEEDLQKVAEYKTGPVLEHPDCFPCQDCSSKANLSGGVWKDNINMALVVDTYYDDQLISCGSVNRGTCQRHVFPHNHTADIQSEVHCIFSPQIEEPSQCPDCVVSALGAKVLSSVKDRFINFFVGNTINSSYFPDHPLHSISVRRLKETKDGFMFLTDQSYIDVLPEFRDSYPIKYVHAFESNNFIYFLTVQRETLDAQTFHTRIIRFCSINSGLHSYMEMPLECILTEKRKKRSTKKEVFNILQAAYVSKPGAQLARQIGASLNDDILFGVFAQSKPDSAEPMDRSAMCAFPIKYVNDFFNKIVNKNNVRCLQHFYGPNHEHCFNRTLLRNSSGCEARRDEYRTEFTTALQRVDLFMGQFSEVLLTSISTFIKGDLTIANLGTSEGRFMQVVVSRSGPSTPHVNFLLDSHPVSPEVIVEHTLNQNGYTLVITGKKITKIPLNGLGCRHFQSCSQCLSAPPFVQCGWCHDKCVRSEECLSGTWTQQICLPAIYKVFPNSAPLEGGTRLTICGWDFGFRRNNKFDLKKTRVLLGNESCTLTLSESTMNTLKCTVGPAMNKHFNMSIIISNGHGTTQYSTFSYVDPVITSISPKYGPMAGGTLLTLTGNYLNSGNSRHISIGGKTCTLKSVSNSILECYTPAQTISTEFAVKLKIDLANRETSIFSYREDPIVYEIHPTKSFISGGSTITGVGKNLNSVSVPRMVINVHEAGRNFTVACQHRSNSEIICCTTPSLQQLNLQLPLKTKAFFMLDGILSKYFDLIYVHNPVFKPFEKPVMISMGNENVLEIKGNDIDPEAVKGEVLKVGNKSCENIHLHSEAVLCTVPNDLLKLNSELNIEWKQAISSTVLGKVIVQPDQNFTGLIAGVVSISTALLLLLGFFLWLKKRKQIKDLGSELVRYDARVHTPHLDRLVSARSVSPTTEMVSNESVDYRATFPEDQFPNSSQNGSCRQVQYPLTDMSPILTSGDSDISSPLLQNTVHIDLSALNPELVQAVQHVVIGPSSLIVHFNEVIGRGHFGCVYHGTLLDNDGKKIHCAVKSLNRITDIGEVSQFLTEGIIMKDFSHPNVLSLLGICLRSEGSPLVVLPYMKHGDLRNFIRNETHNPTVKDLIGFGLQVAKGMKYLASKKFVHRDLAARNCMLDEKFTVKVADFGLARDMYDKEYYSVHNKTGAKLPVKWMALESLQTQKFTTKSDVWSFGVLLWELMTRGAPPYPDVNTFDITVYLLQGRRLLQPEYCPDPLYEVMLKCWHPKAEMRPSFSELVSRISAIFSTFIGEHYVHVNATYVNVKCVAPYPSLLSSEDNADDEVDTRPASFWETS
# [9] = molecular target: T9, PFCDPK1(P.falciparum) (Plasmodium falciparum, UniProt P62344); assay: KINOMEscan; assay type: binding; settings: read-out: %Ctrl @ 10000nM
# T9 construct: purchased DiscoverX KINOMEscan
# [10] = molecular target: T10, NIM1 (Homo sapiens, UniProt Q8IY84); assay: KINOMEscan; assay type: binding; settings: read-out: %Ctrl @ 10000nM
# T10 construct: purchased DiscoverX KINOMEscan
# [11] = molecular target: T11, PKNB(M.tuberculosis) (Mycobacterium tuberculosis, UniProt P9WI81); assay: KINOMEscan; assay type: binding; settings: read-out: %Ctrl @ 10000nM
# T11 construct: purchased DiscoverX KINOMEscan
# [12] = molecular target: T12, TESK1 (Homo sapiens, UniProt Q15569); assay: KINOMEscan; assay type: binding; settings: read-out: %Ctrl @ 10000nM
# T12 construct: purchased DiscoverX KINOMEscan
# [13] = molecular target: T13, TSSK1B (Homo sapiens, UniProt Q9BXA7); assay: KINOMEscan; assay type: binding; settings: read-out: %Ctrl @ 10000nM
# T13 construct: DNA label for qPCR (T7 phage fusion or DNA tag); purchased DiscoverX scanMAX; host or cells: E. coli BL21-derived (T7 phage) or HEK-293
# [14] = molecular target: T14, CDKL2 (Homo sapiens, UniProt Q92772); assay: KINOMEscan; assay type: binding; settings: read-out: %Ctrl @ 10000nM
# T14 construct: purchased DiscoverX KINOMEscan
# [15] = molecular target: T15, MARK3 (Homo sapiens, UniProt P27448); assay: KINOMEscan; assay type: binding; settings: read-out: %Ctrl @ 10000nM
# T15 construct: purchased DiscoverX KINOMEscan
# [16] = molecular target: T16, EGFR(L858R) (Homo sapiens, UniProt P00533, L858R); assay: KINOMEscan; assay type: binding; settings: read-out: %Ctrl @ 10000nM
# T16 construct: purchased DiscoverX KINOMEscan
# [17] = molecular target: T17, STK35 (Homo sapiens, UniProt Q8TDR2); assay: KINOMEscan KdELECT; assay type: binding
# T17 construct: DNA tag for qPCR (T7 phage fusion or DNA label); purchased DiscoverX KdELECT; host or cells: E. coli BL21-derived (T7 phage) or HEK-293
# T17 sequence (Q8TDR2 whole entry, the tested form may be a part): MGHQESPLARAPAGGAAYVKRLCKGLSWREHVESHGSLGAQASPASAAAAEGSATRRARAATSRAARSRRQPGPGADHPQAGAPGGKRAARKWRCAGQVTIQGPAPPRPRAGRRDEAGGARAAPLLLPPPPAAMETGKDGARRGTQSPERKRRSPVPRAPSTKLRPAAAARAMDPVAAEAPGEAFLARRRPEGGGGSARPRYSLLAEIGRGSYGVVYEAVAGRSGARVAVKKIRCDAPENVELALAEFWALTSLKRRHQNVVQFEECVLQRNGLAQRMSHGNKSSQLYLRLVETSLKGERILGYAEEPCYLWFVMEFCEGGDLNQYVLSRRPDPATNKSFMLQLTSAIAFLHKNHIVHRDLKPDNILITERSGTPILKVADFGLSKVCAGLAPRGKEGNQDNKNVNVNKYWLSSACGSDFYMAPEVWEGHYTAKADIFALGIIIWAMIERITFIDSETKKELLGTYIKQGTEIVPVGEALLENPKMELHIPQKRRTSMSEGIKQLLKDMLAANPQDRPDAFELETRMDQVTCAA
# [18] = molecular target: T18, PFTAIRE2 (Homo sapiens, UniProt Q96Q40); assay: KINOMEscan; assay type: binding; settings: read-out: %Ctrl @ 10000nM
# T18 construct: purchased DiscoverX KINOMEscan
# [19] = molecular target: T19, p38-beta (Homo sapiens, UniProt Q15759); assay: KINOMEscan; assay type: binding; settings: read-out: %Ctrl @ 10000nM
# T19 construct: purchased DiscoverX KINOMEscan
# T19 sequence (Q15759 whole entry): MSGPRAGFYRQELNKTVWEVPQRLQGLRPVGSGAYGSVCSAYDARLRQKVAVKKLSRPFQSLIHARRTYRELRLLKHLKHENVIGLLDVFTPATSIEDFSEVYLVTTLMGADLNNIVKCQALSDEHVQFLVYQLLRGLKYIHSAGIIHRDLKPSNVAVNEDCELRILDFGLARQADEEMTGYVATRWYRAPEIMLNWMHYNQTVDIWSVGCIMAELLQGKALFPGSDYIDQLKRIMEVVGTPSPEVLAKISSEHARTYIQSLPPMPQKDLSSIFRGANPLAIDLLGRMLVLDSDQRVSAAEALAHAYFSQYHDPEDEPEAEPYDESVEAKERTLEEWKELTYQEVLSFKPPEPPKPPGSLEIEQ
# [20] = molecular target: T20, RSK1(Kin.Dom.1-N-terminal) (Homo sapiens, UniProt Q15418); assay: KINOMEscan; assay type: binding; settings: read-out: %Ctrl @ 10000nM
# T20 construct: RSK1(Kin.Dom.1-N-terminal); purchased DiscoverX KINOMEscan
# T20 sequence (Q15418 1-391 limits assumed): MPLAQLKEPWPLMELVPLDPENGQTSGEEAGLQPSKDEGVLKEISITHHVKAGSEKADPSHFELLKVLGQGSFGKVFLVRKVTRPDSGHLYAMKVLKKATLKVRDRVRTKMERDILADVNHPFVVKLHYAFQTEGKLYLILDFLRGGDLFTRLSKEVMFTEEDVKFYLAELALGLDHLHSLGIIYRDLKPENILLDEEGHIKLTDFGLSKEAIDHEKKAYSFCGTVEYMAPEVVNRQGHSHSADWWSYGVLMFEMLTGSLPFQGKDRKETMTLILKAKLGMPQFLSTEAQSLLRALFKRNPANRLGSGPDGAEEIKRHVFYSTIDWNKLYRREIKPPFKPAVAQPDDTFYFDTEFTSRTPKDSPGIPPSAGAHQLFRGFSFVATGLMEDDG
# [21] = molecular target: T21, PIK3C2G (Homo sapiens, UniProt O75747); assay: KINOMEscan; assay type: binding; settings: read-out: %Ctrl @ 10000nM
# T21 construct: purchased DiscoverX KINOMEscan
# [22] = molecular target: T22, AKT2 (Homo sapiens, UniProt P31751); assay: KINOMEscan; assay type: binding; settings: read-out: %Ctrl @ 10000nM
# T22 construct: purchased DiscoverX KINOMEscan
# [23] = molecular target: T23, ABL1(H396P)-nonphosphorylated (Homo sapiens, UniProt P00519, H396P); assay: KINOMEscan; assay type: binding; settings: read-out: %Ctrl @ 10000nM
# T23 construct: purchased DiscoverX KINOMEscan
# [24] = molecular target: T24, TIE1 (Homo sapiens, UniProt P35590); assay: KINOMEscan; assay type: binding; settings: read-out: %Ctrl @ 10000nM
# T24 construct: purchased DiscoverX KINOMEscan
# [25] = molecular target: T25, PIK3CA(H1047Y) (Homo sapiens, UniProt P42336, H1047Y); assay: KINOMEscan; assay type: binding; settings: read-out: %Ctrl @ 10000nM
# T25 construct: purchased DiscoverX KINOMEscan
# [26] = molecular target: T26, TYRO3 (Homo sapiens, UniProt Q06418); assay: KINOMEscan; assay type: binding; settings: read-out: %Ctrl @ 10000nM
# T26 construct: DNA label for qPCR (T7 phage fusion or DNA tag); purchased DiscoverX scanMAX; host or cells: E. coli BL21-derived (T7 phage) or HEK-293
# T26 sequence (Q06418 41-890): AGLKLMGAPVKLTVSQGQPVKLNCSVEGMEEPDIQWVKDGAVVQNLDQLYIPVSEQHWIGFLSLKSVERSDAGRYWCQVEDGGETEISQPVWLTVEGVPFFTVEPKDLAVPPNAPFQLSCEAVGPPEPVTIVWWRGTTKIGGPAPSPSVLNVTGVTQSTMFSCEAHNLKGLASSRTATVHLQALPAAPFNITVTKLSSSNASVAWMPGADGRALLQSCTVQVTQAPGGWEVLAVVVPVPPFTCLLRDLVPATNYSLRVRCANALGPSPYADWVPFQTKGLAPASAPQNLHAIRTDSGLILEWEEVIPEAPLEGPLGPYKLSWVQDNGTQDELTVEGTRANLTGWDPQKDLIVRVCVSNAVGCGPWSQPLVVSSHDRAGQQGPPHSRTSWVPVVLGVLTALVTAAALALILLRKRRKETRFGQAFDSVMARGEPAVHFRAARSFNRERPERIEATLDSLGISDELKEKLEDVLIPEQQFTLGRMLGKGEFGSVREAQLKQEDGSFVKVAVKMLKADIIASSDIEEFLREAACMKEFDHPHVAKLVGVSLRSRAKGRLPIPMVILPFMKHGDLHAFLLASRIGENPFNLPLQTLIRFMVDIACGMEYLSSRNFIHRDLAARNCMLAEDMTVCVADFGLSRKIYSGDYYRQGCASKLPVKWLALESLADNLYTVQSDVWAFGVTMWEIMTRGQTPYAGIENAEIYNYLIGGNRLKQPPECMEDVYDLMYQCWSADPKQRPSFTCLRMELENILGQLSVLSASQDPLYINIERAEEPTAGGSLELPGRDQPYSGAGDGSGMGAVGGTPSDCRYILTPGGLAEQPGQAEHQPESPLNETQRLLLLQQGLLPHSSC
# [27] = molecular target: T27, HPK1 (Homo sapiens, UniProt Q92918); assay: KINOMEscan; assay type: binding; settings: read-out: %Ctrl @ 10000nM
# T27 construct: purchased DiscoverX KINOMEscan
# [28] = Plasma stability; assay type: in vitro ADME; settings: human, read-out: Plasma Stability T1/2
# [29] = molecular target: T28, PRKD2 (Homo sapiens, UniProt Q9BZL6); assay: KINOMEscan; assay type: binding; settings: read-out: %Ctrl @ 10000nM
# T28 construct: purchased DiscoverX KINOMEscan
# [30] = molecular target: T29, PIK3C2B (Homo sapiens, UniProt O00750); assay: KINOMEscan; assay type: binding; settings: read-out: %Ctrl @ 10000nM
# T29 construct: purchased DiscoverX KINOMEscan
# [31] = molecular target: T30, LZK (Homo sapiens, UniProt O43283); assay: KINOMEscan; assay type: binding; settings: read-out: %Ctrl @ 10000nM
# T30 construct: purchased DiscoverX KINOMEscan
# [32] = molecular target: T31, DYRK1B (Homo sapiens, UniProt Q9Y463); assay: KINOMEscan; assay type: binding; settings: read-out: %Ctrl @ 10000nM
# T31 construct: purchased DiscoverX KINOMEscan
# [33] = molecular target: T32, DYRK1A (Homo sapiens, UniProt Q13627); assay: KINOMEscan; assay type: binding; settings: read-out: %Ctrl @ 10000nM
# T32 construct: purchased DiscoverX KINOMEscan
# [34] = molecular target: T33, DRAK2 (Homo sapiens, UniProt O94768); assay: KINOMEscan; assay type: binding; settings: read-out: %Ctrl @ 10000nM
# T33 construct: purchased DiscoverX KINOMEscan
# T33 sequence (O94768 whole entry): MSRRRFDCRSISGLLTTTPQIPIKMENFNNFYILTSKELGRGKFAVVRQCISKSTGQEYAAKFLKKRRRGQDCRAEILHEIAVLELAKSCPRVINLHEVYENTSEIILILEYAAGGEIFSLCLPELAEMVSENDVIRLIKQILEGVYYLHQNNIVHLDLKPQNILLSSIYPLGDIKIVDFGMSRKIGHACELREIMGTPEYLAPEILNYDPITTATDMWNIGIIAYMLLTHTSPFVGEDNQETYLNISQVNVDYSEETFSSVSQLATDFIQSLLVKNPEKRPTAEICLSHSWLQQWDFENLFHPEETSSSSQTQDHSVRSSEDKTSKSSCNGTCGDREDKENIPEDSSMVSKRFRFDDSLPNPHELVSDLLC
# [35] = molecular target: T34, WNK3 (Homo sapiens, UniProt Q9BYP7); assay: KINOMEscan; assay type: binding; settings: read-out: %Ctrl @ 10000nM
# T34 construct: DNA label for qPCR (T7 phage fusion or DNA tag); purchased DiscoverX scanMAX; host or cells: E. coli BL21-derived (T7 phage) or HEK-293
# [36] = molecular target: T35, SRPK2 (Homo sapiens, UniProt P78362); assay: KINOMEscan; assay type: binding; settings: read-out: %Ctrl @ 10000nM
# T35 construct: purchased DiscoverX KINOMEscan
# [37] = molecular target: T36, BRK (Homo sapiens, UniProt Q13882); assay: KINOMEscan; assay type: binding; settings: read-out: %Ctrl @ 10000nM
# T36 construct: purchased DiscoverX KINOMEscan
# [38] = molecular target: T37, NEK7 (Homo sapiens, UniProt Q8TDX7); assay: KINOMEscan; assay type: binding; settings: read-out: %Ctrl @ 10000nM
# T37 construct: purchased DiscoverX KINOMEscan
# T37 sequence (Q8TDX7 whole entry): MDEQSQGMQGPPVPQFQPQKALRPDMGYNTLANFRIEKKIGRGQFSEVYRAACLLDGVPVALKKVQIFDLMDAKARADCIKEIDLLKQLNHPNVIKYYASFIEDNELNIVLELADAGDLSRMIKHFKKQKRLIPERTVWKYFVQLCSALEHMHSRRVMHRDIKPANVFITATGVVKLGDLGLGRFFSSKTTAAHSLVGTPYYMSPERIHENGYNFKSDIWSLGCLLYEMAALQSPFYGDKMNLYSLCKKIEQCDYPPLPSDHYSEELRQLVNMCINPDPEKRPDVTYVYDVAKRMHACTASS
# [39] = molecular target: T38, KIT-autoinhibited (Homo sapiens, UniProt P10721); assay: KINOMEscan; assay type: binding; settings: read-out: %Ctrl @ 10000nM
# T38 construct: purchased DiscoverX KINOMEscan
# [40] = molecular target: T39, ACVR1B (Homo sapiens, UniProt P36896); assay: KINOMEscan; assay type: binding; settings: read-out: %Ctrl @ 10000nM
# T39 construct: purchased DiscoverX KINOMEscan
compound,measurement,setting,value
"CC(C)c1ccc(CC(=O)N2CCN(c3ccc(C#N)nn3)CC2)cc1 [PZ-2891, 6-(4-(2-(4-isopropylphenyl)acetyl)piperazin-1-yl)pyridazine-3-carbonitrile]",remaining binding at 10 µM,[1],87%
same,remaining binding at 10 µM,[2],91%
same,remaining binding at 10 µM,[3],97%
same,remaining binding at 10 µM,[4],73%
same,remaining binding at 10 µM,[5],75%
same,remaining binding at 10 µM,[6],100%
same,remaining binding at 10 µM,[7],96%
same,remaining binding at 10 µM,[8],80%
same,remaining binding at 10 µM,[9],97%
same,remaining binding at 10 µM,[10],83%
same,remaining binding at 10 µM,[11],74%
same,remaining binding at 10 µM,[12],86%
same,remaining binding at 10 µM,[13],99%
same,remaining binding at 10 µM,[14],90%
same,remaining binding at 10 µM,[15],84%
same,remaining binding at 10 µM,[16],84%
same,Kd,[17]; STK35,> 30 µM
same,Kd,[17]; STK35 Replicate ID = 1,> 30 µM
same,Kd,[17]; STK35 Replicate ID = 2,> 30 µM
same,remaining binding at 10 µM,[18],99%
same,remaining binding at 10 µM,[19],96%
same,remaining binding at 10 µM,[20],100%
same,remaining binding at 10 µM,[21],61%
same,remaining binding at 10 µM,[22],85%
same,remaining binding at 10 µM,[23],74%
same,remaining binding at 10 µM,[24],85%
same,remaining binding at 10 µM,[25],46%
same,remaining binding at 10 µM,[26],100%
same,remaining binding at 10 µM,[27],100%
same,half-life,[28],> 50 h
same,remaining binding at 10 µM,[29],82%
same,remaining binding at 10 µM,[30],100%
same,remaining binding at 10 µM,[31],89%
same,remaining binding at 10 µM,[32],66%
same,remaining binding at 10 µM,[33],71%
same,remaining binding at 10 µM,[34],95%
same,remaining binding at 10 µM,[35],100%
same,remaining binding at 10 µM,[36],97%
same,remaining binding at 10 µM,[37],80%
same,remaining binding at 10 µM,[38],75%
same,remaining binding at 10 µM,[39],81%
same,remaining binding at 10 µM,[40],97%
